Test results as given in ChEMBL document CHEMBL5620408, “Discovery of novel diarypyrimidine derivatives bearing six-membered non-aromatic heterocycles as potent HIV-1 NNRTIs with improved anti-resistance and drug-like profiles” (Eur J Med Chem, 2023).

Experiments:
[1] = system: Human immunodeficiency virus 1; experiment: Antiviral activity against HIV1 NL4-3 infected in MT4 cells; format: functional, organism-based; conditions: Human immunodeficiency virus 1, NL4-3, MT4
[2] = system: Human immunodeficiency virus 1; experiment: microbe, parasite or virus in culture; conditions: Human immunodeficiency virus 1, IIIB, MT4
Description: Antiviral activity against HIV1 IIIB infected in MT-4 cells assessed as viral induced cytopathic effect by MTT assay

[3] = Selectivity index, ratio of CC50 for human MT4 cells to EC50 for antiviral activity against HIV IIIB
[4] = system: MT4; experiment: Cytotoxicity against human MT4 cells; format: toxicity, cell-based
[5] = target: Human immunodeficiency virus type 1 reverse transcriptase (Human immunodeficiency virus 1, UniProt Q72547); experiment: Inhibition of wild type HIV-1 reverse transcriptase
[6] = system: Human immunodeficiency virus 1; experiment: microbe, parasite or virus in culture; conditions: Human immunodeficiency virus 1, RES056, MT4
Description: Antiviral activity against HIV1 RES056 infected in MT-4 cells assessed as viral induced cytopathic effect by MTT assay

[7] = Cytotoxicity against human MT4 cells assessed as reduction in cell viability by MTT assay; format: toxicity, cell-based
[8] = system: Human immunodeficiency virus 1; experiment: Antiviral activity against HIV1 harboring K103N mutant infected in MT4 cells; format: functional, organism-based; conditions: Human immunodeficiency virus 1, MT4
[9] = system: Human immunodeficiency virus 1; experiment: Antiviral activity against HIV1 harboring Y188L mutant infected in MT4 cells; format: functional, organism-based; conditions: Human immunodeficiency virus 1, MT4
[10] = system: Human immunodeficiency virus 1; experiment: Antiviral activity against HIV1 harboring Y181C mutant infected in MT4 cells; format: functional, organism-based; conditions: Human immunodeficiency virus 1, MT4
[11] = system: Human immunodeficiency virus 1; experiment: Antiviral activity against HIV1 harboring F227L/V106A double mutant infected in MT4 cells; format: functional, organism-based; conditions: Human immunodeficiency virus 1, MT4
[12] = system: Human immunodeficiency virus 1; experiment: Antiviral activity against HIV1 harboring E138K mutant infected in MT4 cells; format: functional, organism-based; conditions: Human immunodeficiency virus 1, MT4
[13] = system: Human immunodeficiency virus 1; experiment: Antiviral activity against HIV1 harboring L100I mutant infected in MT4 cells; format: functional, organism-based; conditions: Human immunodeficiency virus 1, MT4
[14] = Selectivity index, ratio of CC50 for human MT4 cells to EC50 for antiviral activity against HIV RES056

| EC50 [1] [µM] | EC50 [2] [µM] | EC50 [6] [µM] | Structure (SMILES) | selectivity ratio [3] | Activity [4] | IC50 [5] [µM] | CC50 [7] [µM] | EC50 [8] [µM] | EC50 [9] [µM] | EC50 [10] [µM] | EC50 [11] [µM] | EC50 [12] [µM] | EC50 [13] [µM] | selectivity ratio [14] |
| --- | --- | --- | --- | --- | --- | --- | --- | --- | --- | --- | --- | --- | --- | --- |
| 0.0057 | 0.005 | > 38.6 | CCS(=O)(=O)N1CCC(c2ccc(Nc3nccc(Oc4c(C)cc(/C=C/C#N)cc4C)n3)cc2)CC1 | > 7360 | Non-Toxic | 0.071 | > 38.6 | – | – | – | – | – | – | – |
| 0.0248 | 0.009 | > 6.27 | Cc1cc(/C=C/C#N)cc(C)c1Oc1ccnc(Nc2ccc(C3CCN(S(=O)(=O)N(C)C)CC3)cc2)n1 | 686 | Non-Toxic | 0.1 | 6.27 | – | – | – | – | – | – | < 1 |
| 0.0255 | 0.009 | > 1.73 | Cc1cc(/C=C/C#N)cc(C)c1Oc1ccnc(Nc2ccc(N3CCN(S(=O)(=O)C(C)C)CC3)cc2)n1 | 193 | Non-Toxic | 0.13 | 1.73 | – | – | – | – | – | – | < 1 |
| 0.00612 | 0.006 | > 216 | Cc1cc(/C=C/C#N)cc(C)c1Oc1ccnc(Nc2ccc(N3CCN(S(=O)(=O)C4CC4)CC3)cc2)n1 | 37300 | Non-Toxic | 0.083 | 216 | – | – | – | – | – | – | < 1 |
| 0.00832 | 0.006 | > 239 | Cc1cc(C#N)cc(C)c1Oc1ccnc(Nc2ccc(N3CCN(S(=O)(=O)C4CC4)CC3)c(F)c2)n1 | > 40600 | Non-Toxic | 0.077 | > 239 | – | – | – | – | – | – | – |
| 0.0153 | – | 0.037 | Cc1cn([C@H]2C[C@H](N=[N+]=[N-])[C@@H](CO)O2)c(=O)[nH]c1=O [ZIDOVUDINE] | – | Non-Toxic | – | > 7.48 | – | – | – | – | – | – | – |
| – | – | – | O=C1Nc2ccc(Cl)cc2[C@@](C#CC2CC2)(C(F)(F)F)O1 [EFAVIRENZ] | – | – | – | > 6.33 | – | 0.25 | – | – | – | 0.053 | – |
| 0.0289 | 0.008 | > 78.1 | Cc1cc(/C=C/C#N)cc(C)c1Oc1ccnc(Nc2ccc(N3CCN(S(=O)(=O)N(C)C)CC3)cc2)n1 | 10200 | Non-Toxic | 0.14 | 78.1 | – | – | – | – | – | – | < 1 |
| 0.00574 | 0.006 | > 7.75 | Cc1cc(C#N)cc(C)c1Oc1ccnc(Nc2ccc(N3CCN(S(C)(=O)=O)CC3)c(F)c2)n1 | 1240 | Non-Toxic | 0.043 | 7.75 | – | – | – | – | – | – | < 1 |
| 0.0119 | 0.008 | > 2.38 | Cc1cc(/C=C/C#N)cc(C)c1Oc1ccnc(Nc2ccc(C3CCN(S(=O)(=O)C(C)C)CC3)cc2)n1 | 298 | Non-Toxic | 0.13 | 2.38 | – | – | – | – | – | – | < 1 |
| 0.0246 | 0.008 | > 192 | Cc1cc(C#N)cc(C)c1Oc1ccnc(Nc2ccc(N3CCN(S(=O)(=O)C(C)C)CC3)c(F)c2)n1 | 24500 | Non-Toxic | 0.14 | 192 | – | – | – | – | – | – | < 1 |

| Structure (SMILES) | EC50 [1] [µM] | EC50 [2] [µM] | EC50 [6] [µM] | selectivity ratio [3] | Activity [4] | IC50 [5] [µM] | CC50 [7] [µM] | EC50 [8] [µM] | EC50 [9] [µM] | EC50 [10] [µM] | EC50 [11] [µM] | EC50 [12] [µM] | EC50 [13] [µM] | selectivity ratio [14] |
| --- | --- | --- | --- | --- | --- | --- | --- | --- | --- | --- | --- | --- | --- | --- |
| Cc1ccnc2c1NC(=O)c1cccnc1N2C1CC1 [NEVIRAPINE] | – | – | > 15 | – | – | – | > 15 | 6.04 | > 15 | 7.4 | > 15 | – | – | – |
| CCS(=O)(=O)N1CCN(c2ccc(Nc3nccc(Oc4c(C)cc(/C=C/C#N)cc4C)n3)cc2F)CC1 | 0.00164 | 0.003 | 1.73 | 37900 | Non-Toxic | 0.054 | 111 | 0.004 | > 111 | 0.03 | 0.036 | 0.015 | 0.021 | 64 |
| Cc1cc(/C=C/C#N)cc(C)c1Oc1ccnc(Nc2ccc(N3CCN(S(=O)(=O)C(C)C)CC3)c(F)c2)n1 | 0.0053 | 0.005 | 5.88 | 3620 | Non-Toxic | 0.097 | 18.1 | 0.007 | > 18.1 | 0.094 | 0.1 | 0.029 | 0.042 | 3 |
| Cc1cc(/C=C/C#N)cc(C)c1Nc1ccnc(Nc2ccc(C#N)cc2)n1 [RILPIVIRINE] | 0.0006 | – | – | – | Non-Toxic | 0.43 | – | – | – | – | – | – | – | – |
| Cc1cc(C#N)cc(C)c1Oc1nc(Nc2ccc(C#N)cc2)nc(N)c1Br [ETRAVIRINE] | – | – | 0.076 | – | – | – | > 4.59 | 0.001 | – | – | 0.025 | – | – | – |
| Cc1cc(/C=C/C#N)cc(C)c1Oc1ccnc(Nc2ccc(N3CC[S+]([O-])CC3)c(F)c2)n1 | – | 0.001 | 1.3 | 9800 | – | 0.027 | 13.3 | 0.004 | 5.12 | 0.084 | 0.13 | 0.024 | 0.034 | 10 |
| Cc1cc(/C=C/C#N)cc(C)c1Oc1ccnc(Nc2ccc(CN3CCN(S(C)(=O)=O)CC3)cc2)n1 | 0.00079 | – | – | – | Non-Toxic | 0.033 | – | 0.004 | 1.32 | – | 0.21 | 0.009 | 0.014 | – |
| Cc1cc(/C=C/C#N)cc(C)c1Oc1ccnc(Nc2ccc(C3CCN(S(=O)(=O)C4CC4)CC3)cc2)n1 | 0.00595 | 0.005 | > 37.8 | > 7650 | Non-Toxic | 0.079 | > 37.8 | 0.02 | > 37.8 | 0.38 | 0.057 | 0.051 | 0.11 | – |
| CCS(=O)(=O)N1CCN(c2ccc(Nc3nccc(Oc4c(C)cc(C#N)cc4C)n3)cc2F)CC1 | 0.0102 | 0.004 | > 245 | > 55100 | Non-Toxic | 0.058 | > 245 | 0.021 | > 245 | 0.19 | 0.055 | 0.064 | 0.13 | – |
| CCS(=O)(=O)N1CCN(c2ccc(Nc3nccc(Oc4c(C)cc(/C=C/C#N)cc4C)n3)cc2)CC1 | 0.00218 | 0.005 | > 38.6 | > 7740 | Non-Toxic | 0.1 | > 38.6 | 0.048 | > 38.6 | 0.81 | 0.24 | 0.085 | 0.45 | – |
| Cc1cc(/C=C/C#N)cc(C)c1Oc1ccnc(Nc2ccc(N3CCOCC3)c(F)c2)n1 | – | 0.005 | 0.84 | 49600 | – | 0.046 | 228 | 0.005 | 4.19 | 0.044 | 0.1 | 0.025 | 0.027 | 272 |
